Measurements as given in US20060014726A1, “Derivatives of cyclic1, 3- propanediol phosphate and their action in differentiation therapy” (priority 2002, published 2006).
Like-named read-outs stand apart in the source and are kept apart here.

Key:
K562 cells = tested on: K562 cells
Protocol: It is known from the literature that sodium butyrate derives K562 cells into the erythroid differentiation program (Sutherland et al. 1986). Base on such an observation, the ability of 1,3-cPP alone or in combination with sodium butyrate may trigger the erythroid differentiation program manifested by hemoglobin production.
K562 cells were incubated for 5 days in the presence or absence of 10 or 50 μM 1,3cPP and 1 mM butyric acid as a differentiating agent. Quantitative measurements of hemoglobin production was determined by staining of lysed cells with benzidine-peroxide reagent. The benzidine-peroxide reagent was prepared by dissolving 3,3′,5,5′-tetramethyl benzidine in 90% acetic acid and mixing with an equal volume of freshly prepared 1% hydrogen peroxide. Cell lysate, obtained by hypotonic lysing of 5×10^4 cells in 0.1 ml distilled water, was added to 0.1 ml benzidine reagent and incubated at room temperature for 10 minutes in the dark. Absorbance was measured at 515 nm and was taken as a relative index of the hemoglobin level.

PR mRNA in MCF-7 cells = assay: Quantitative RT-PCR of PR mRNA in MCF-7 cells; format: cell-based, human; conditions: 20 μM
Protocol: It should however be understood that the augmented expression of ER-α and PR presented in FIGS. 1-3 could have in principle originated from increase in either transcription or translation associated with the respective steroid receptor genes. Therefore the effects of long term incubation with 1,3cPP on the respective ER-α and PR mRNA levels were examined. Quantitative RT-PCR was carried out with a Light Cycler as described. […] In contrast, only 20 μM 1,3-cPP were required to induce 7-fold increase in the ER-α mRNA in T47D clone 8 cells (FIG. 4D). […]
RT-PCR was carried out on a programmable thermal controller instrument according to standard protocols, where the annealing temperatures were 58° C. for ER-α and 56° C. for PR. […] The PCR products were diluted and used to build a standard curve for the quantitative PCR which was carried out in a Light Cycler instrument (Roche Diagnostics, Mannheim, Germany). […] For each control and test sample, the amount of the constitutively expressed house keeping enzyme glyceraldehyde-3-phosphate dehydrogenase (GAPDH) mRNA was quantified by using appropriate primers and the quantity of ER-α and PR mRNA were normalized to the quantity of GAPDH mRNA in each sample. The relative amounts of ER-α and PR mRNA were expressed as normalized 1,3cPP treatment values divided by the normalized control values.

O=P1(O)OCCCO1 [1,3-cPP, 1,3-cyclic propanediol phosphate]
baseline production of hemoglobin (K562 cells; K562 cells, 10 μM 1,3-cPP together with 1 mM sodium butyrate, 5 days): more than doubling | baseline production of hemoglobin (K562 cells; K562 cells, 50 μM 1,3-cPP together with 1 mM sodium butyrate, 5 days): more than tripling | hemoglobin production (K562 cells; K562 cells, 1,3-cPP alone, 5 days): almost no effect | cell viability (K562 cells; K562 cells, all groups): over 85% | interaction with sodium butyrate on hemoglobin production and proliferation (K562 cells; K562 cells, combination with sodium butyrate (FIG. 7)): synergizes with sodium butyrate | total cell number (K562 cells; K562 cells, fifth day, most prominently 50 μM 1,3-cPP together with 1 mM sodium butyrate): concurrent decrease | increase in the normalized PR mRNA expression (PR mRNA in MCF-7 cells; 8th day): 3 fold | increase in the normalized PR mRNA expression (PR mRNA in MCF-7 cells; 11th day): about 1.5 fold
